Source: PubChem BioAssay (NCI)
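Following 48 hours of exposure in 96-well plates, responses at five concentrations were used to interpolate endpoints linearly. GI50 marks 50% less growth. At the TGI there is no net growth.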

Experiments:
Assay in all cases: growth of human tumour cells (NCI), 48 h
[1] = test system: HCC-2998 colon
[2] = test system: HCT-15 colon
[3] = test system: MOLT-4 leukemia
[4] = test system: SN12C renal
[5] = test system: MALME-3M melanoma
[6] = test system: HT29 colon
[7] = test system: OVCAR-3 ovarian
[8] = test system: RXF 393 renal
[9] = test system: COLO 205 colon

Row | Structure (SMILES) | GI50 [1] [µM] | TGI [1] [µM] | GI50 [2] [µM] | TGI [2] [µM] | GI50 [3] [µM] | TGI [3] [µM] | GI50 [4] [µM] | TGI [4] [µM] | GI50 [5] [µM] | TGI [5] [µM] | GI50 [6] [µM] | TGI [6] [µM] | GI50 [7] [µM] | TGI [7] [µM] | TGI [8] [µM] | TGI [9] [µM] | GI50 [8] [µM] | GI50 [9] [µM]
1 | CC(=O)[CH-]C(=O)c1ccccc1.CC(=O)[CH-]C(=O)c1ccccc1.CCOCC[O-].CCOCC[O-].[Ti+4] | 18.4 | 43.5 | 28.3 | 91.9 | 10.4 | 56.5 | 20.6 | 73.4 | 16.9 | 43.7 | 20.1 | 46.2 | 21.6 | > 100 | – | – | – | –
2 | C=C[C@@]1(O)CCCC2=C(C(=O)OCC)CC[C@]21C | – | > 100 | – | > 100 | – | > 100 | – | > 100 | – | > 100 | – | > 100 | – | > 100 | > 100 | > 100 | – | –
3 | O=c1c2cccc3cccc(c4n1CCN=4)c32 | – | – | – | > 100 | – | > 100 | – | > 100 | – | > 100 | – | > 100 | – | > 100 | > 100 | > 100 | – | –
4 | COC(C(=O)NCCCCNC(=O)C(OC)c1ccccc1)c1ccccc1 (stereo unspecified) | – | – | – | > 100 | – | > 100 | – | > 100 | – | > 100 | – | > 100 | – | > 100 | > 100 | > 100 | – | –
5 | FC(F)(F)C1(Br)C(c2ccccc2)=C1c1ccccc1 | – | 38.4 | – | 28 | – | > 100 | – | 28.3 | – | 30.5 | – | 34.8 | – | 29.6 | 31.7 | 34.9 | – | –
6 | CC(C)(C)C(=O)OCC1CCC(n2cnc3c(=O)[nH]c(N)nc32)O1 (stereo unspecified) | – | > 100 | – | > 100 | – | – | – | > 100 | – | > 100 | – | > 100 | – | > 100 | – | > 100 | – | –
7 | COc1cc(CNc2ccccc2C(=O)N2CCN(C(=O)c3cc(-c4cc(OC)c(OC)c(OC)c4)n4nc(-c5ccccc5)cc4n3)CC2)cc(OC)c1OC | 5.8 | > 100 | 4.25 | > 100 | 3.32 | > 100 | 17 | > 100 | – | – | 3.5 | 12 | 2.69 | 9.59 | 7.54 | 15.4 | 2.32 | 4.1
8 | O=c1[nH]c2cc(Cl)ccc2nc1/C(=N\O)C(O)c1ccc([N+](=O)[O-])cc1 (stereo unspecified) | – | > 100 | – | > 100 | – | > 100 | – | > 100 | – | > 100 | – | > 100 | – | – | > 100 | > 100 | – | –
9 | CC1=NN(C(=O)c2ccc([N+](=O)[O-])cc2)C(=O)C1N=Nc1ccccc1C(=O)O (stereo unspecified) | – | > 100 | – | – | – | > 100 | – | > 100 | – | > 100 | – | > 100 | – | > 100 | > 100 | > 100 | – | –
10 | C/C=C/CC(C)[C@@H](O)[C@H](NC)C(=O)O (stereo partly specified) | – | > 100 | – | > 100 | – | > 100 | – | > 100 | – | > 100 | – | > 100 | – | > 100 | > 100 | > 100 | – | –
11 | Cc1cc(N(CCC#N)S(C)(=O)=O)ccc1C=Nc1ccc(C(=O)NN2C(=O)/C(=C/c3ccc(N(CCC#N)CCC#N)cc3C)N=C2c2cc([N+](=O)[O-])ccc2Cl)cc1 | – | > 100 | – | > 100 | – | – | – | > 100 | – | > 100 | – | > 100 | – | > 100 | > 100 | > 100 | – | –
12 | Cc1cc(=O)oc2c(C)c(OCCCOc3ccc4c(C)cc(=O)oc4c3C)ccc12 | – | – | – | > 100 | – | > 100 | – | – | – | > 100 | – | > 100 | – | > 100 | – | – | – | –
13 | CC/C(CC(=O)CCC(=O)Nc1ccccc1[N+](=O)[O-])=N/NC(=O)C[n+]1ccccc1 | – | > 100 | – | > 100 | – | > 100 | – | > 100 | – | > 100 | – | > 100 | – | > 100 | > 100 | > 100 | – | –
14 | CCc1cccc(CC)c1NC(=O)C1=C(C)NC(C)=C(C(=O)Nc2c(CC)cccc2CC)C1c1ccc([N+](=O)[O-])cc1 | – | > 100 | – | – | – | 43.3 | – | > 100 | – | 46.8 | – | 40 | – | 96 | 77.6 | 54.5 | – | –
15 | COc1cc(CNC2c3cc4c(cc3C(c3cc(OC)c(OC)c(OC)c3)[C@H]3C(=O)OCC23)OCO4)cc(OC)c1OC (stereo partly specified) | – | 13.1 | – | > 100 | – | > 100 | – | > 100 | – | > 100 | – | 19.5 | – | > 100 | – | 0.37 | – | –
16 | O=C(Nc1cccc(O)c1)C(=O)C(C(=O)c1ccc(Cl)c(Cl)c1)C1OC(=O)c2ccccc21 (stereo unspecified) | – | 29.2 | – | 35 | – | 29.2 | – | 38.4 | – | 33.8 | – | 68.4 | – | – | 37.2 | 30.7 | – | –
17 | O=[N+]([O-])C1Cc2ccccc2OC1c1ccccc1 (stereo unspecified) | – | > 100 | – | – | – | 70.7 | – | 63 | – | > 100 | – | > 100 | – | > 100 | 45.8 | > 100 | – | –

Row | Structure (SMILES) | GI50 [1] [µM] | TGI [1] [µM] | GI50 [2] [µM] | TGI [2] [µM] | GI50 [3] [µM] | TGI [3] [µM] | GI50 [4] [µM] | TGI [4] [µM] | GI50 [5] [µM] | TGI [5] [µM] | GI50 [6] [µM] | TGI [6] [µM] | GI50 [7] [µM] | TGI [7] [µM] | TGI [8] [µM] | TGI [9] [µM] | GI50 [8] [µM] | GI50 [9] [µM]
18 | O=C1OC(O)C(Oc2c(Cl)cccc2Cl)=C1Cl (stereo unspecified) | – | 37.9 | – | 29 | – | 85.7 | – | 35 | – | 75.4 | – | 34.3 | – | 31 | 23.9 | 30.2 | – | –
19 | CN(C)c1nc(=Nc2cccc(Cl)c2)ss1 | – | 47.9 | – | 27.9 | – | 22.4 | – | 25.4 | – | 27.1 | – | 36.3 | – | – | 31.7 | – | – | –
20 | O=C1CCCCCCCCCCC1CN1CCCCC1 (stereo unspecified) | – | > 100 | – | > 100 | – | > 100 | – | > 100 | – | > 100 | – | > 100 | – | > 100 | – | > 100 | – | –
21 | CCOC(=N)CC(=O)c1ccccc1 | – | > 100 | – | – | – | > 100 | – | > 100 | – | > 100 | – | > 100 | – | > 100 | > 100 | > 100 | – | –
22 | Cn1c(=O)c2nc(-c3ccc(Cl)cc3)oc2n(C)c1=O | – | > 100 | – | > 100 | – | > 100 | – | > 100 | – | > 100 | – | > 100 | – | > 100 | > 100 | – | – | –
23 | CCOC(=N)/C(=C1\OC(N)=C(c2ccc(Cl)cc2)C1=O)c1ccc(Cl)cc1 | – | 32.7 | – | – | – | 52.1 | – | 28.6 | – | 28.2 | – | 52.6 | – | 32.8 | 27.2 | 30.2 | – | –
24 | Cc1c(C(=O)/C=C/c2ccccc2O)c(=O)n(-c2ccccc2)n1C | – | 29.5 | – | 60.5 | – | 63.2 | – | 52.6 | – | 70.7 | – | > 100 | – | > 100 | 50.8 | 70.8 | – | –
25 | CCCN(CCCC(NC(C)=O)C(=O)NCc1ccccc1)C(=O)NCCCl (stereo unspecified) | – | > 100 | – | > 100 | – | > 100 | – | > 100 | – | > 100 | – | > 100 | – | > 100 | > 100 | > 100 | – | –
26 | COC(=O)C(Cc1nc2ccccc2[nH]c1=O)C(=O)C(=O)Nc1ccc([N+](=O)[O-])cc1[N+](=O)[O-] (stereo unspecified) | – | 33.2 | – | 34.5 | – | 59.1 | – | 50.6 | – | 34.3 | – | 35 | – | 30.5 | 36.8 | 35.2 | – | –
27 | CC(C)(C)C1CCC2c3c([nH]c4ccccc34)C3C(=O)N(c4ccccc4)C(=O)C3C2C1 (stereo unspecified) | – | 53.5 | – | > 100 | – | 14 | – | 17.4 | – | 7.31 | – | > 100 | – | 19.1 | 14.4 | 17.8 | – | –
28 | O=S1Nc2c(Cl)cc(Cl)c3c(Cl)cc(Cl)c(c23)N1 | – | 99.8 | – | > 100 | – | > 100 | – | > 100 | – | > 100 | – | > 100 | – | 96.2 | 50.9 | > 100 | – | –
29 | CCc1cc(CCC(=O)Nc2c(C)cccc2C)[nH]n1 | – | > 100 | – | > 100 | – | > 100 | – | > 100 | – | > 100 | – | > 100 | – | > 100 | > 100 | > 100 | – | –
30 | Cc1cc(Cl)ccc1NC(=O)C(=O)C(C(=O)c1ccc2ccccc2c1)C1OC(=O)c2ccccc21 (stereo unspecified) | – | 22.2 | – | 50.9 | – | – | – | 37.4 | – | 22.8 | – | 72.6 | – | 33.3 | 9.53 | 28.5 | – | –
31 | CN1C(=O)C(=O)c2cc3c(c4c2c1cc1ccccc14)OCO3 | – | > 100 | – | > 100 | – | 93.4 | – | > 100 | – | > 100 | – | > 100 | – | > 100 | 96.8 | 89.7 | – | –
32 | CSc1n[n+]2c(s1)SCCC2 | – | > 100 | – | – | – | > 100 | – | > 100 | – | > 100 | – | > 100 | – | > 100 | > 100 | 48.3 | – | –
33 | O=C1C(Cl)C(c2ccccc2O)N1n1cnc2ccccc2c1=O (stereo unspecified) | – | > 100 | – | 15.1 | – | > 100 | – | 20.4 | – | > 100 | – | > 100 | – | > 100 | 95.7 | > 100 | – | –
